From patent publication US20230146870A1, “METHOD TO QUANTIFY AFFINITY AND SELECTIVITY OF SMALL MOLECULES FOR PROTEINS IN LIVING CELLS” (Ohio State Innovation Foundation, priority 2021, published 2023)

How the values were obtained:
mouse PKCγ-mVenus = mouse PKCγ-mVenus (Mus musculus, UniProt P63318); experiment: Apparent cellular Kd by flow cytometry, HEK293 cells overexpressing PKCγ-mVenus (Example 2); settings: 90 min
[1] = biological target: full-length rat PKCγ-EGFP (Rattus norvegicus, UniProt P63319); experiment: Cellular binding by flow cytometry, HEK293 cells expressing full-length PKCγ-EGFP; settings: verapamil 100 μM
mouse PKCβI-mVenus = biological target: T1, mouse PKCβI-mVenus (Mus musculus, UniProt P68404); experiment: Apparent cellular Kd by flow cytometry, HEK293 cells overexpressing PKCβI-mVenus (Example 2); type: binding; settings: 90 min
T1 construct: eight plasmids encoding full length mouse PKC isozymes fused to; expressed in transfected cells; host or cells: HEK293
Description: The apparent Kd values of these fluorescent probes were measured using different PKC isozymes (e.g., PKCβI, FIGS. 20A-20D). HEK293 cells were transfected to overexpress PKCβ-mVenus and treated with probes in the presence of verapamil (100 μM) as an inhibitor of efflux.

mouse PKCα-mVenus = mouse PKCα-mVenus (Mus musculus, UniProt P20444); experiment: Apparent cellular Kd by flow cytometry, HEK293 cells overexpressing PKCα-mVenus (Example 2); settings: 90 min

T1 sequence (P68404 whole entry, the tested form may be a part): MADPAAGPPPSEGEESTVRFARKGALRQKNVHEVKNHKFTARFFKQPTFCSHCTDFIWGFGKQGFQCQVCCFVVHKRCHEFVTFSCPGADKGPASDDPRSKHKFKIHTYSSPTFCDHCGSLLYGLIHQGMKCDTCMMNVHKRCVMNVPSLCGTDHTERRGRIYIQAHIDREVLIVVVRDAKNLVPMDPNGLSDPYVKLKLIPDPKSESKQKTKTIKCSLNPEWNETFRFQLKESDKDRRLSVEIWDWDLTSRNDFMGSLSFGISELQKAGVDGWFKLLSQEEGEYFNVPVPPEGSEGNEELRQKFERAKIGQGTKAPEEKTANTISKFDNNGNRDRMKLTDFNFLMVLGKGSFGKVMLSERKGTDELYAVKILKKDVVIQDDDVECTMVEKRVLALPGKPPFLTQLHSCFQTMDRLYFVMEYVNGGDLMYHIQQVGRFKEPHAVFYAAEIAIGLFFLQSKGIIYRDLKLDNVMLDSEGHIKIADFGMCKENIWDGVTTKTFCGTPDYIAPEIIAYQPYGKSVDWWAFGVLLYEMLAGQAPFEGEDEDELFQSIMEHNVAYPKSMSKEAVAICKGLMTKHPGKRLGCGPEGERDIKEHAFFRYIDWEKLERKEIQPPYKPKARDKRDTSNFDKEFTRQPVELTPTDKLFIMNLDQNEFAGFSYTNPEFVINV

CC1=C[C@H]2[C@@]3(O)[C@H](C)[C@@H](O)[C@]4(OC(=O)N(C)CCCCCCCCCCCCN(C)C(=O)c5cc6ccc(O)cc6oc5=O)[C@H]([C@@H]3C=C(CO)C[C@]2(O)C1=O)C4(C)C [probe 34, (1aR,1bS,4aR,7aS,7bS,8R,9R,9aS)-4a,7b,9-trihydroxy-3-(hydroxymethyl)-1,1,6,8-tetramethyl-5-oxo-1,1a,1b,4,4a,5,7a,7b,8,9-decahydro-9aH-cyclopropa[3,4]benzo[1,2-e]azulen-9a-yl (12-(7-hydroxy-N-methyl-2-oxo-2H-chromene-3-carboxamido)dodecyl)(methyl)carbamate]
specific binding to PKCγ-mVenus (mouse PKCγ-mVenus): no specific binding
total binding fluorescence vs non-specific binding [1]: identical or lower than the non-specific binding value
specific binding to PKCβI-mVenus (mouse PKCβI-mVenus): not measurable
specific binding to PKCα-mVenus (mouse PKCα-mVenus): no specific binding
